PubChem BioAssay (NCI)
Values joined by “and” are separate entries in the source; they are usually repeats but may differ in a detail not shown here. Equal values may be shown once.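 Results reflect a 48-hour exposure of cells in 96-well plates to compound at five concentrations. The concentration for 50% growth inhibition is given as GI50. TGI denotes the concentration required for complete inhibition of growth.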

Legend:
Test in all cases: NCI anticancer screen, dose series, 48 h
[1] = system: HL-60(TB) leukemia
[2] = system: SF-268 CNS
[3] = system: COLO 205 colon
[4] = system: T-47D breast
[5] = system: 786-0 renal
[6] = system: NCI-H226 lung
[7] = system: OVCAR-3 ovarian
[8] = system: U251 CNS
[9] = system: LOX IMVI melanoma
[10] = system: DMS 114 small cell lung
[11] = system: M19-MEL melanoma
[12] = system: LXFL 529 NSCLC

## Cc1c(OCc2cccc3ccccc23)ccc2c(=O)cc(SCCN3CCOCC3)oc12
[1]
  TGI: > 100 µM
[2]
  TGI: > 100 µM
[3]
  TGI: > 100 µM
[4]
  TGI: > 100 µM
[5]
  TGI: > 100 µM
[6]
  TGI: > 100 µM
[7]
  TGI: > 100 µM
[8]
  TGI: > 100 µM
[9]
  TGI: > 100 µM

## CSc1nnc(SCc2nn3c(=O)cc(C)nc3s2)s1
[1]
  TGI: > 100 µM
[2]
  TGI: > 100 µM
[3]
  TGI: > 100 µM
[4]
  TGI: > 100 µM
[5]
  TGI: > 100 µM
[6]
  TGI: > 100 µM
[7]
  TGI: > 100 µM
[8]
  TGI: > 100 µM
[9]
  TGI: > 100 µM

## Cc1ccc(N=C/C=C(\Nc2ccc(C)cc2)c2ccc3ccccc3c2)cc1
[1]
  TGI: 2.02 µM
[2]
  TGI: 28.8 µM
[3]
  TGI: 2.38 µM
[4]
  TGI: 23.7 µM
[5]
  TGI: 3.38 µM
[6]
  TGI: 4.48 µM
[7]
  TGI: 11.2 µM
[8]
  TGI: 7.23 µM
[9]
  TGI: 1.91 µM

## C=C(Br)C[N+]12CN3CN(CN(C3)C1)C2
[1]
  TGI: > 100 µM
[2]
  TGI: > 100 µM
[3]
  TGI: > 100 µM
[4]
  TGI: > 100 µM
[5]
  TGI: > 100 µM
[6]
  TGI: > 100 µM
[7]
  TGI: > 100 µM
[8]
  TGI: > 100 µM
[9]
  TGI: > 100 µM

## COc1cccc(NC(=O)CC(=O)n2nc(-c3ccccc3)c(N=Nc3ccc(Cl)cc3)c2-c2ccccc2)c1
[1]
  TGI: 56.1 µM
[2]
  TGI: 49.4 µM
[3]
  TGI: 61.6 µM
[4]
  TGI: > 100 µM
[5]
  TGI: 64.4 µM
[6]
  TGI: 73.8 µM
[7]
  TGI: 99.1 µM
[8]
  TGI: 77.9 µM
[9]
  TGI: 38.4 µM

## CC(C)[C@H](C)/C=C/[C@@H](C)C1CC[C@H]2[C@@]34C=C[C@]5(C[C@@H](O)CC[C@]5(C)[C@H]3CC[C@]12C)OO4 (stereo partly specified)
[1]
  TGI: 57.1 µM
[2]
  TGI: > 100 µM
[3]
  TGI: > 100 µM
[4]
  TGI: > 100 µM
[5]
  TGI: 47.7 µM
[6]
  TGI: 49.9 µM
[7]
  TGI: > 100 µM
[8]
  TGI: 58.5 µM
[9]
  TGI: 41.6 µM

## CCCC1=C(OC)C(=O)c2c(C)cc(Cl)nc2C1=O
[1]
  TGI: 3.65 µM
[2]
  TGI: 27.2 µM
[3]
  TGI: 22.1 µM
[4]
  TGI: 9.83 µM
[5]
  TGI: 5.23 µM
[6]
  TGI: 33.2 µM
[7]
  TGI: 6.54 µM
[8]
  TGI: 18.6 µM
[9]
  TGI: 5.15 µM

## Oc1c(Cl)cc2cc1-c1cc(cc(Cl)c1O)CCc1c(cc(Cl)c(O)c1Cl)-c1cc(Cl)c(c(Cl)c1O)/C=C\2
[1]
  TGI: > 50 µM
[2]
  TGI: 23.6 µM
[3]
  TGI: 16.4 µM
[4]
  TGI: 19.2 µM
[5]
  TGI: 16.6 µM
[6]
  TGI: 22.5 µM
[7]
  TGI: 14.4 µM
[8]
  TGI: 45.6 µM
[9]
  TGI: 20 µM

## NC1CCCCC1NCCNC1CCCCC1N (stereo unspecified)
[1]
  TGI: > 100 µM
[2]
  TGI: > 100 µM
[3]
  TGI: 30.8 µM
[4]
  TGI: > 100 µM
[5]
  TGI: > 100 µM
[6]
  TGI: > 100 µM
[7]
  TGI: > 100 µM
[8]
  TGI: > 100 µM
[9]
  TGI: > 100 µM

## COC(=O)[C@@H](NS(=O)(=O)CC12CCC(CC1)C2(C)C)C(C)(C)C
[1]
  TGI: > 100 µM
[2]
  TGI: > 100 µM
[3]
  TGI: > 100 µM
[4]
  TGI: > 100 µM
[5]
  TGI: > 100 µM
[6]
  TGI: > 100 µM
[7]
  TGI: > 100 µM
[8]
  TGI: > 100 µM
[9]
  TGI: > 100 µM

## Cc1cc2c(=O)c3ccc(Cl)cc3[nH]c2c(C(N)=O)c1C
[1]
  TGI: > 100 µM
[2]
  TGI: > 100 µM
[3]
  TGI: > 100 µM
[5]
  TGI: > 100 µM
[10]
  TGI: > 100 µM
[11]
  TGI: > 100 µM
[7]
  TGI: > 100 µM
[8]
  TGI: > 100 µM
[9]
  TGI: > 100 µM
[12]
  TGI: > 100 µM

## O=C1C(N2CCN(CCOCCO)CC2)=C(Cl)C(=O)c2ncccc21
[1]
  GI50: 2.24 µM
  TGI: 8.29 µM and 5.91 µM
[2]
  TGI: 44.5 µM
[3]
  GI50: 19.3 µM
  TGI: 36.8 µM
[4]
  TGI: 6.75 µM
[5]
  TGI: 36 µM
[6]
  GI50: > 100 µM
  TGI: > 100 µM
[7]
  TGI: 32.7 µM
[8]
  TGI: 35.9 µM
[9]
  TGI: 26.7 µM

## N/N=C(/N)SCCCCCCCCCCS/C(N)=N/N
[1]
  TGI: 39.4 µM
[2]
  TGI: > 100 µM
[3]
  TGI: 27.7 µM
[4]
  TGI: 35.4 µM
[5]
  TGI: > 100 µM
[6]
  TGI: 83.1 µM
[7]
  TGI: 91.1 µM
[8]
  TGI: 51.4 µM
[9]
  TGI: 23.7 µM

## C=C(CN(CC)CC)C1(c2ccccc2)CC2(CCCC2)C(=O)O1 (stereo unspecified)
[1]
  TGI: > 100 µM
[2]
  TGI: > 100 µM
[3]
  TGI: > 100 µM
[4]
  TGI: > 100 µM
[5]
  TGI: > 100 µM
[6]
  TGI: > 100 µM
[7]
  TGI: > 100 µM
[8]
  TGI: > 100 µM
[9]
  TGI: > 100 µM

## Cc1cc2nc3ccccc3n2c2ccccc12
[1]
  TGI: > 10 µM
[2]
  TGI: > 10 µM
[3]
  TGI: > 10 µM
[4]
  TGI: > 10 µM
[5]
  TGI: > 10 µM
[6]
  TGI: > 10 µM
[7]
  TGI: > 10 µM
[8]
  TGI: > 10 µM
[9]
  TGI: > 10 µM

## Cc1nc(C)c(N2CCN(CN)CC2)c(=O)[nH]1
[1]
  TGI: > 100 µM
[2]
  TGI: > 100 µM
[3]
  TGI: > 100 µM
[4]
  TGI: > 100 µM
[5]
  TGI: > 100 µM
[6]
  TGI: > 100 µM
[7]
  TGI: > 100 µM
[8]
  TGI: > 100 µM
[9]
  TGI: > 100 µM

## CC(OP(=O)(O)O)C(N)C(=O)O (stereo unspecified)
[1]
  TGI: > 100 µM
[2]
  TGI: > 100 µM
[3]
  TGI: > 100 µM
[4]
  TGI: > 100 µM
[5]
  TGI: > 100 µM
[6]
  TGI: > 100 µM
[7]
  TGI: > 100 µM
[8]
  TGI: > 100 µM
[9]
  TGI: > 100 µM

## CCC1=C(C[C@H]2NCCc3cc(OC)c(OC)cc32)C[C@H]2c3cc(OC)c(OC)cc3CCN2C1
[1]
  TGI: 0.0765 µM
[2]
  TGI: 0.407 µM
[5]
  TGI: 0.107 µM
[10]
  TGI: 0.0598 µM
[11]
  TGI: 0.0983 µM
[7]
  TGI: 0.158 µM
[8]
  TGI: 0.188 µM
[12]
  TGI: 6.4 µM

## CCOC(=O)c1cc2c3c(c(C(C)=O)c(OC)c2[nH]1)N(C(=O)CC)CC3
[1]
  TGI: 46.7 µM
[2]
  TGI: 36.6 µM
[3]
  TGI: 41.8 µM
[4]
  TGI: 45.4 µM
[5]
  TGI: 34.9 µM
[6]
  TGI: 34.2 µM
[7]
  TGI: 34.4 µM
[8]
  TGI: 47.6 µM
[9]
  TGI: 29.6 µM

## CCOc1ccc2nc3nc(=O)[nH]c(C)c3c(NC(C)(CO)CO)c2c1
[1]
  TGI: > 100 µM
[2]
  TGI: > 100 µM
[3]
  TGI: > 100 µM
[4]
  TGI: > 100 µM
[5]
  TGI: > 100 µM
[6]
  TGI: > 100 µM
[7]
  TGI: > 100 µM
[8]
  TGI: > 100 µM
[9]
  TGI: > 100 µM

## O=c1cc(-c2ccccc2)oc2c1ccc1[nH]c3ccccc3c(=O)c12
[1]
  TGI: > 100 µM
[2]
  TGI: > 100 µM
[3]
  TGI: > 100 µM
[4]
  TGI: > 100 µM
[5]
  TGI: > 100 µM
[6]
  TGI: > 100 µM
[7]
  TGI: > 100 µM
[8]
  TGI: > 100 µM
[9]
  TGI: 34.9 µM

## COC(=O)C1C(=O)CC(C)(O)C(C(=O)OC)C1c1ccc(N(C)C)cc1 (stereo unspecified)
[1]
  TGI: > 100 µM
[2]
  TGI: > 100 µM
[3]
  TGI: > 100 µM
[4]
  TGI: > 100 µM
[5]
  TGI: 24.7 µM
[6]
  TGI: > 100 µM
[7]
  TGI: > 100 µM
[8]
  TGI: > 100 µM
[9]
  TGI: 24.4 µM

## O=c1c2ccccc2nc(N/N=C/c2ccc([N+](=O)[O-])cc2)n1-c1ccccc1
[1]
  TGI: > 100 µM
[2]
  TGI: 59.3 µM
[3]
  TGI: > 100 µM
[4]
  TGI: > 100 µM
[5]
  TGI: 20.1 µM
[6]
  TGI: > 100 µM
[7]
  TGI: > 100 µM
[8]
  TGI: 48.4 µM
[9]
  TGI: > 100 µM

## O=C1c2ccncc2C(=O)c2c(O)ccc(O)c21
[1]
  TGI: 5.41 µM
[2]
  TGI: 24.2 µM
[3]
  TGI: 13.1 µM
[5]
  TGI: 19.2 µM
[10]
  TGI: 13 µM
[11]
  TGI: 9.58 µM
[6]
  TGI: 29.4 µM
[7]
  TGI: 5.81 µM
[8]
  TGI: 30.3 µM
[9]
  TGI: 18.3 µM
[12]
  TGI: 22 µM
